For this test, the target named is Human Factor D (Homo sapiens (Human), UniProt P00746). The test can be described thus: Human Factor D Assay. The class given is biochemical. The conditions noted are these: Factor D inhibition, assay of Example 10; read-out: IC5 (Stars). An outline of the steps: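 Thioester substrate Z-L-Lys-SBz (100 μM) with Ellman's reagent DTNB (100 μM) reports activity of 80 nM human serum-derived enzyme, kinetically at 405 nm over 30 min. Compound preincubated 5 min, room temperature, pH 7.5 Tris/1 M NaCl; IC50 by nonlinear fit of rates.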
Human Factor D, sequence (P00746 26-253): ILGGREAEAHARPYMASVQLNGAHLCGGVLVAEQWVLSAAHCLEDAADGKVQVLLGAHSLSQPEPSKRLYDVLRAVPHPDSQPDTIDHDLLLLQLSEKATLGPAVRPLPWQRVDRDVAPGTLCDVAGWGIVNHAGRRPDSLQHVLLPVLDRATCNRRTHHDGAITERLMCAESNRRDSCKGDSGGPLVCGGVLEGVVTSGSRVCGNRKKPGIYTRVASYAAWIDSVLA

Molecules are shown by their SMILES.

Regarding `CC(=O)c1nn(CC(=O)N2[C@H](C(=O)Nc3nc(Br)c(F)cc3C)C[C@@]3(CC#N)C[C@@H]23)c2cnc(-c3cnc(C)nc3)cc12` [Compound 249, (1R,3S,5R)-2-(2-(3-acetyl-5-(2-methylpyrimidin-5-yl)-1H-pyrazolo[3,4-c]pyridin-1-yl)acetyl)-N-(6-bromo-5-fluoro-3-methylpyridin-2-yl)-5-(cyanomethyl)-2-azabicyclo[3.1.0]hexane-3-carboxamide], the IC50 was < 1 µM.
The result for `CC(=O)c1nn(CC(=O)N2[C@H](C(=O)Nc3nc(Br)c(F)cc3C)C[C@@]3(CN4CC(F)(F)C4)C[C@@H]23)c2cnc(-c3cnc(C)nc3)cc12` [Compound 250, (1R,3S,5R)-2-(2-(3-acetyl-5-(2-methylpyrimidin-5-yl)-1H-pyrazolo[3,4-c]pyridin-1-yl)acetyl)-N-(6-bromo-5-fluoro-3-methylpyridin-2-yl)-5-((3,3-difluoroazetidin-1-yl)methyl)-2-azabicyclo[3.1.0]hexane-3-carboxomide] reads < 1 µM; that for `CC(=O)c1nn(CC(=O)N2[C@H](C(=O)Nc3nc(Br)c(F)cc3C)C[C@@]3(CF)C[C@@H]23)c2cnc(-c3cnc(C)nc3)cc12` [Compound 251], < 1 µM; that for `CC(=O)c1nn(CC(=O)N2[C@H](C(=O)Nc3nc(Br)c(F)cc3C)C[C@@]3(CN4CC5(CCCC5)C4)C[C@@H]23)c2cnc(-c3cnc(C)nc3)cc12` [Compound 252, (1R,3S,5R)-5-(2-azaspirp[3.4]octan-2-ylmethyl)-2-(2-(3-acetyl-5-(2-methylpyrimidin-5-yl)-1H-pyrazole[3,4-c]pyridin-1-yl)acetyl)-N-(6-bromo-5-fluoro-3-methylpyridin-2-yl)-2-azabicyclo[3.1.0]hexane-3-carboxomide], < 1 µM.
In the case of `CC(=O)c1nn(CC(=O)N2[C@H](C(=O)Nc3nc(Br)c(F)cc3C)C[C@@]3(CN4C[C@H]5CCC[C@H]5C4)C[C@@H]23)c2cnc(-c3cnc(C)nc3)cc12` [Compound 253, (1R,3S,5R)-2-(2-(3-acetyl-5-(2-methylpyrimidin-5-yl)-1H-pyrazolo[3,4-c]pyridin-1-yl)acetyl)-N-(6-bromo-5-fluoro-3-methylpyridin-2-yl)-5-(((3aR,6aS)-hexahydrocyclopenta [c]pyrrol-2(1H)-yl)methyl)-2-azabicyclo[3.1.0]hexane-3-carboxamide] it was < 1 µM; in that of `CC(=O)c1nn(CC(=O)N2[C@H](C(=O)Nc3nc(Br)c(F)cc3C)C[C@@]3(C)C[C@@H]23)c2cnc(-c3cnc(C)[n+]([O-])c3)cc12` [Compound 254, 5-(3-acetyl-1-(2-((1R,3S,5R)-3-((6-bromo-5-fluoro-3-methylpyridin-2-yl)carbamoyl)-5-methyl-2-azabicyclo[3.1.0]hexane-2-yl)-2-oxoethyl)-1H-pyrazolo[3,4-c]pyridin-5-yl)-2-methylpyrimidine 1-oxide], < 1 µM.
In the case of `CC(=O)c1nn(CC(=O)N2[C@H](C(=O)Nc3nc(OC(F)(F)F)ccc3C)C[C@@]3(C)C[C@@H]23)c2cnc(-c3cnc(C)nc3)cc12` [Compound 256] it was < 1 µM; in that of `CC(=O)c1nn(CC(=O)N2[C@H](C(=O)Nc3nc(Br)ccc3CC(C)C)C[C@@]3(C)C[C@@H]23)c2cnc(-c3cnc(C)nc3)cc12` [Compound 258, (1R,3S,5R)-2-(2-(3-acetyl-5-(2-methylpyrimidin-5-yl)-1H-pyrazolo[3,4-c]pyridin-1-yl)acetyl)-N-(6-bromo-3-isobutylpyridin-2-yl)-5-methyl-2-azabicyclo[3.1.0]hexane-3-carboxamide], < 1 µM; in that of `CC(=O)c1nn(CC(=O)N2[C@H](C(=O)Nc3nc(Br)ccc3C)C[C@@]3(CN(CCO)CCO)C[C@@H]23)c2cnc(-c3cnc(C)nc3)cc12` [Compound 262, (1R,3S,5R)-2-(2-(3-acetyl-5-(2-methylpyrimidin-5-yl)-1H-pyrazolo[3,4-c]pyridin-1-yl)acetyl)-5-((bis(2-hydroxyethyl)amino)methyl)-N-(6-bromo-3-methylpyridin-2-yl)-2-azabicyclo[3.1.0] hexane-3-carboxamide], < 1 µM.

For the origin of these results see US11084800B2 (Achillion Pharmaceuticals, Inc., priority 2017, dated 2021).
